Literature values in US6504031B1, “Naphthamidine urokinase inhibitors” (priority 1998, dated 2003).

Legend:
tumor metastasis = conditions: Anticancer Res. 1988, 8, 1373-1376
angiogenesis = conditions: J. Cell Biol. 1991, 115[3 Pt 2], 402a

SMILES: N=C(N)NC(=O)c1nc(Cl)c(N)nc1N [Amiloride]
- inhibition of tumor metastasis in vivo (tumor metastasis): inhibit tumor metastasis
- inhibition of angiogenesis in vitro (angiogenesis): inhibit
